# Source: patent publication US5202348A, “Thiarubrine antifungal agents” (The University of British Columbia, priority 1990, dated 1993)
# Read-outs that look alike come from different tables or passages of the source.
# Legend:
# [1] = system: Escherichia coli; details: cited from earlier work
# [2] = system: Aspergillus; experiment: Anti-Aspergillus activity (summary); format: cell-based; details: Table 14;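 also: Letter grades where Y means active and y means less active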
# [3] = system: E. coli; experiment: Growth inhibition of E. coli during 24 hours exposure; format: cell-based, Escherichia coli; details: Escherichia coli, 24 h, read-out: Minimal concentration causing 50% growth inhibition
# Method: (§1) Doses inhibiting growth in 50% were estimated by plotting concentration o
# (§2) a logarithmic scale and percent of growth inhibition for 24 hours exposur
# (§3) on a probability scale.
# [4] = system: C. albicans; experiment: Growth inhibition of C. albicans during 24 hours exposure; format: cell-based, Candida albicans; details: Candida albicans, 24 h, read-out: Minimal concentration causing 100% growth inhibition
# [5] = system: P815 mastocytoma; experiment: LC50 (24 hrs.), doses required to inhibit growth in 50%, different method; format: cell-based; details: Mus musculus, P815, 24 h, read-out: LC50 (24 hrs.), dose required to inhibit growth in 50%
# [6] = system: C. albicans; experiment: as above; format: cell-based, Candida albicans; details: Candida albicans, 24 h, read-out: LC50 (24 hrs.), dose required to inhibit growth in 50%
# Source text: Doses Required to Inhibit Growth of C. albicans
# in 50% During 24 hrs. (ng/ml)
# [7] = system: Coenorhabditis elogans; details: cited from earlier work
# [8] = system: murine cytomegalovirus and Sindbis virus; details: phototoxic activity; cited from earlier work
# [9] = system: Sindbis virus; details: only in presence of UV-A radiation; cited from earlier work
# [10] = system: murine cytomegalovirus; details: only in presence of UV-A radiation; cited from earlier work
# [11] = system: E. coli; experiment: Growth inhibition of E. coli during 24 hours exposure; format: cell-based, Escherichia coli; details: Escherichia coli, 24 h, read-out: Minimal concentration causing 100% growth inhibition
# [12] = system: Aspergillus fumigatus; experiment: Sensitivity of Aspergillus fumigatus, agar diffusion method; format: cell-based; details: read-out: Zone of Growth Inhibition
# Source text: Results were obtained by agar diffusion method. Disc diameter - 6 mm. -* = no zone over disc diameter.
# [13] = system: bacteriophage T4; details: in UV-A only; cited from earlier work
# [14] = system: bacteriophage M13; details: cited from earlier work
# [15] = system: P. aeruginosa; experiment: Growth inhibition of P. aeruginosa during 24 hours exposure; format: cell-based, Pseudomonas aeruginosa; details: Pseudomonas aeruginosa, 24 h
# Method: as §1, §2, §3
# [16] = system: WEHI-3; experiment: Growth inhibition of WEHI-3 during 24 hours exposure; format: cell-based, Mouse; details: Mus musculus, WEHI-3, 24 h, read-out: Concentration causing 50% growth inhibition
# Method: (§4) WEHl3 = Mouse myelomonocyte
# as §1, §2, §3
# [17] = as above; format: cell-based, Mouse; details: mouse, wehi-3 cells; Table 2; read-out: Toxicity Index, LC50 WEHI-3 / LC50 C. albicans
# Method: as §4, §1, §2, §3
# [18] = system: Candida; experiment: Anti-Candida activity (summary); format: cell-based; details: Table 14;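 also: Letter grades where Y means active and y means less active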
# [19] = system: mouse cells; details: cited from earlier work
# [20] = system: 3T3; experiment: Growth inhibition of 3T3 during 24 hours exposure; format: cell-based, Mouse; details: Mus musculus, NIH3T3, 24 h, read-out: Concentration causing 50% growth inhibition
# Method: (§5) 3T3 = Mouse fibroblasts
# as §1, §2, §3
# [21] = Growth inhibition of 3T3 during 24 hours exposure; format: cell-based, Mouse; details: mouse, 3t3 cells; Table 2; read-out: Toxicity Index, LC50 3T3 / LC50 C. albicans
# Method: as §5, §1, §2, §3
# [22] = Growth inhibition of P815 mastocytoma during 24 hours exposure; format: cell-based, Mouse; details: mouse, p815 cells
# Method: (§6) P815 = Mouse mastocytoma […]
# as §2, §3
# [23] = system: P815; experiment: as above; format: cell-based, Mouse
# Method: as §6, §2, §3
# [24] = system: Bacillus subtilis; details: cited from earlier work
# [25] = Growth inhibition of L1210 during 24 hours exposure; format: cell-based, Mouse; details: mouse, l1210 cells; Table 2; read-out: Toxicity Index, LC50 L1210 / C. albicans
# Method: (§7) L1210 = Mouse lymphocytic leukemia
# as §1, §2, §3
# [26] = system: L1210; experiment: as above; format: cell-based, Mouse; details: Mus musculus, L1210, 24 h, read-out: Concentration causing 50% growth inhibition
# Method: as §7, §1, §2, §3
# [27] = system: Hycobacteria sp.; details: cited from earlier work
# [28] = system: Candida albicans; details: concentrations comparable to those of amphotericin B; cited from earlier work
# [29] = system: C. albicans; experiment: Growth inhibition of C. albicans during 24 hours exposure; format: cell-based, Candida albicans; details: Candida albicans, 24 h
# Method: as §1, §2, §3
# [30] = system: Aspergillus fumigatus; details: concentrations comparable to those of amphotericin B; cited from earlier work
# [31] = system: bacteria; experiment: Anti-bacterial activity (summary); format: cell-based; details: Table 14
# [32] = read-out: Minimal concentration causing 50% growth inhibition
smiles,measurement,setting,value
"C=CC#CC#CC1=CC=C(C#CC)SS1 [Thiarubrine A, 3 - (1- -propynyl) 6 (5-hexen-3-yn-1-ynyl)1,2-dithiacyclohexa-3,5-diene]",Cytotoxic activity,[1],cytotoxic activity
same,Anti-Aspergillus,[2],Y
same,IC50,[3],0.18 µg/mL
same,MIC,[4],0.16 µg/mL
same,IC50,[5],0.081 µg/mL
same,IC50,[6],0.04 µg/mL
same,Cytotoxic activity,[7],cytotoxic activity
same,Order of potency,[8],alpha-terthienyl thiarubrine-A > phenylheptatriyne > ACBP-thiophene > thiophene-A
same,Sensitivity of virus,[9],extremely sensitive
same,Sensitivity of virus,[10],extremely sensitive
same,MIC,[11],0.625 µg/mL
same,zone of inhibition at 0.01 µg/disc,[12],8 mm
same,zone of inhibition at 0.1 µg/disc,[12],19 mm
same,zone of inhibition at 1 µg/disc,[12],27 mm
same,zone of inhibition at 10 µg/disc,[12],27 mm
same,Effect on bacteriophage,[13],slightly affected
same,Effect on bacteriophage,[14],completely unaffected
same,IC50,[15]; [32],0.68 µg/mL
same,MIC,[15]; read-out: Minimal concentration causing 100% growth inhibition,2.5 µg/mL
same,IC50,[16],0.027 µg/mL
same,selectivity ratio at 24 h,[17],1
same,Anti-Candida,[18],Y
same,Sensitivity of mouse cells,[19]; in presence of UV-A,moderately sensitive
same,Sensitivity of mouse cells,[19]; in the dark,somewhat less sensitive
same,IC50,[20],0.45 µg/mL
same,selectivity ratio at 24 h,[21],12
same,selectivity ratio at 24 h,"[22]; 100% growth inhibition, Table 3, read-out: Ratio of minimal concentration causing 100% growth inhibition, P815 line vs C. albicans",~4
same,selectivity ratio at 24 h,"[22]; Table 2, read-out: Toxicity Index, LC50 P815 / LC50 C. albicans",1
same,"Ratio of concentration needed to inhibit growth in 50%, P815 vs C. albicans","[23]; 50% growth inhibition, Table 4",the same
same,IC50,"[23]; Mus musculus, P815, 24 h, read-out: Concentration causing 50% growth inhibition",0.035 µg/mL
same,IC50,"[23]; Mus musculus, P815, 24 h, read-out: Minimal concentration causing 50% growth inhibition",0.035 µg/mL
same,IC100,"[23]; Mus musculus, P815, 24 h, read-out: Minimal concentration causing 100% growth inhibition",0.625 µg/mL
same,Cytotoxic activity,[24],cytotoxic activity
same,selectivity ratio at 24 h,[25],1
same,IC50,[26],0.035 µg/mL
same,Cytotoxic activity,[27],cytotoxic activity
same,Antifungal activity,[28],strong antifungal activity
same,IC50,[29]; read-out: Concentration causing 50% growth inhibition,0.028 µg/mL
same,IC50,[29]; [32],0.028 µg/mL
same,Antifungal activity,[30],strong antifungal activity
same,Anti-bacterial,[31],Y
